{"source": "patent US20130072506A1", "about": "“6,8-DISUBSTITUTED PURINE COMPOSITIONS” (priority 2011, published 2013)", "key": {"SKH-1 hairless mice [1]": {"tested_on": "SKH-1 hairless mice", "experiment": "Hairless mouse assay: skin histology and skin compartment measurements", "format": "in vivo", "conditions": "after 3 weeks of treatment", "excerpt": "(§1) Experimental Design. 48 female SKH-1 hairless mice (5 weeks old, 20-25 grams, Charles River Laboratories, Wilmington, Mass.) are individually housed in filter-top cages, and acclimated for 5-7 days after delivery. The mice are divided into 8 treatment groups (n=6), including two different control groups (untreated control, vehicle control) and a therapeutic control (tretinoin 0.05% Renova™ cream). Cage cards are marked to indicate treatment groups 1-8. Water and mouse chow are provided ad libitum.\n(§2) Topical Treatments. Beginning on Treatment Day 1, test products are applied topically each morning (Monday through Friday) after erythema evaluations for 3 weeks. Using a positive displacement pipette, 20 mg of each agent is applied to a 2 cm×2 cm area of the center midline of the back. The material was spread across the treatment area with the pipette tip.\nSkin Histology. Skin biopsies are taken of each treatment site and untreated control skin. Biopsies are fixed in 4% neutral buffered formalin, embedded in paraffin, and stained with hematoxylin and eosin. The stained skin sections are examined to determine the effects of the treatment on epidermal, dermal, and stratum corneum histology. Biopsies are also microscopically examined for inflammatory cells.\nSkin Compartment Measurements. The H&E stained biopsy slides were imaged using a trinocular Olympus BH-2 microscope fitted with a Microfire 2.1×3 Digital Camera. 100× images were digitized and stored on CD using MS Pictureframe and Microfire Software. All compartment images were measured using a calibrated micrometer. An average of three measurements of each compartment for two slide images per biopsy was obtained and tabulated, and means and standard deviations were calculated."}, "SKH-1 hairless mice [2]": {"tested_on": "SKH-1 hairless mice", "experiment": "Hairless mouse assay: skin moisture content", "format": "in vivo", "conditions": "course over 3 weeks of topical treatment", "excerpt": "Evaluation of cutaneous effects of new topical compounds in the hirless mouse assay. The purpose of this study was to evaluate new topical compounds for their safety and efficacy as topical skin anti-aging treatments. The hairless mouse model is a well established model for studying the treatments of photoaging. […] The present study was used to investigate a new class of anti-aging compounds in comparison to classical ones. […] Topical compounds and vehicle controls were be applied daily (Monday-Friday) for 3 weeks to the dorsal skin of hairless mice. At baseline (prior to the 1st treatment), and weekly, the dorsal skin was measured for: transepidermal water loss (TEWL); skin moisture content; and skin elasticity.\nas §1\nSkin Moisture Content & Elasticity. The measurements of skin moisture content and skin elasticity are important noninvasive methods used to characterize the effects of moisturizers and anti-wrinkle effects on skin. A DermaLab™ combination instrument were used to measure the skin moisture content and elasticity of the target skin sites at baseline and at weekly intervals. This instrument is equipped with dual probes which are placed on the skin surface and a quantitative measurement taken of the respective parameters and the measurements recorded on an integrated computer. Mean measurements was determined for each treatment group over time, and comparative statistics used to evaluate product effectiveness.\nas §2"}, "SKH-1 hairless mice [3]": {"tested_on": "SKH-1 hairless mice", "experiment": "Hairless mouse assay: erythema scoring (skin irritation)", "format": "in vivo", "set-up": "key: 0: No response; 1: Very slight redness; 2: Slight redness; 3: Moderate redness/irritation; 4: Severe redness/irritation; 5: Very severe redness/irritation; 6: Necrosis", "conditions": "topical, daily, 1 to 3 weeks", "excerpt": "Evaluation of cutaneous effects of new topical compounds in the hirless mouse assay. The purpose of this study was to evaluate new topical compounds for their safety and efficacy as topical skin anti-aging treatments. The hairless mouse model is a well established model for studying the treatments of photoaging. This model has been used to study mechanisms, define effective treatment regimens and assess safety for retinoids and other anti-aging products. The present study was used to investigate a new class of anti-aging compounds in comparison to classical ones. Recent clinical studies have shown that this class of compounds improve the appearance of photodamaged skin and decrease transepidermal water loss (TEWL) without causing skin irritation. This study investigated the mechanisms of how these compounds affect the skin aging process and help to identify new compounds which are safe and effective for preventing and improving the clinical features of photoaged skin. Topical compounds and vehicle controls were be applied daily (Monday-Friday) for 3 weeks to the dorsal skin of hairless mice. At baseline (prior to the 1st treatment), and weekly, the dorsal skin was measured for: transepidermal water loss (TEWL); skin moisture content; and skin elasticity.\nExperimental Design. […]\nTechnical staff recorded erythema scores for all animals each morning. […]"}, "SKH-1 hairless mice [4]": {"tested_on": "SKH-1 hairless mice", "experiment": "Hairless mouse assay: epidermal bromodeoxyuridine (BrdU) staining", "format": "in vivo", "conditions": "after 3 weeks of topical treatment", "excerpt": "This study determined the effect of topical compound formulations on epidermal cell proliferation using bromodeoxyuridine as an immunohistochemical marker of cell proliferation. Histological examination of the treated and control skin were used to determine cutaneous effects of the topical compounds. Topical tretinoin 0.05% (Renova™) was used as a therapeutic control.\nas §1, §2\nBromodeoxyuridine Injection. All animal groups are injected with bromodeoxyuridine (100 mg/kg) I.P. 4 hours after the final application. Animals are sacrificed by CO2 inhalation 3 hours later followed by cervical dislocation. The test sites are excised, and 6 mm punch biopsies are obtained from each treatment site, and from untreated controls. Biopsies are placed into labeled vials containing 4% neutral buffered formalin for paraffin embedding and anti-BrdU staining.\nBromodeoxyuridine Immunohistochemical Staining. Paraffin sections are cut to a […] thickness and stained using the BrdU Immuno-histochemistry kit (X1545K from Exalpha Biologicals, Inc.) and a standard staining protocol. The slides are weakly counterstained in Mayer's hematoxylin and scored under a light microscope for the number of BrdU-positive cells per mm of epidermis for each section. The data are expressed as mean BrdU-positive cells/mm for each treatment group. Differences in BrdU labeling in the treatment groups are statistically analyzed using the Students t-test. Representative photographs are taken of the histological sections of the BrdU-positive staining cells."}, "[5]": {"conditions": "clinical experience / previous clinical studies; cited from earlier work"}}, "data": [{"smiles": "CC1=C(/C=C/C(C)=C/C=C/C(C)=C/C(=O)O)C(C)(C)CCC1", "note": "[tretinoin]", "values": [{"measurement": "skin compartment thickness", "setting": "SKH-1 hairless mice [1]; H&E stained biopsies", "value": "increased both epidermal and dermal thickness"}, {"measurement": "histological evaluation of skin biopsies", "setting": "SKH-1 hairless mice [1]", "value": "marked increased thickness of the epidermis and inflammatory changes in the dermis"}, {"measurement": "skin moisture content (skin conductance)", "setting": "SKH-1 hairless mice [2]", "value": "significant decrease"}, {"measurement": "Erythema score (Grade)", "setting": "SKH-1 hairless mice [3]", "value": 3}, {"measurement": "epidermal BrdU staining", "setting": "SKH-1 hairless mice [4]", "value": "no epidermal BrdU staining"}, {"measurement": "TEWL", "setting": "[5]", "value": "increase in TEWL"}]}]}
